According to ChEMBL document CHEMBL1143368, “The translocator protein (18 kDa): central nervous system disease and drug design” (J Med Chem, 2009):

Legend:
[1] = biological target: Translocator protein (Homo sapiens) (UniProt P30536); test: Binding affinity to TSPO in parietal lobe of healthy human; type: tissue-based; settings: tested as the 125I-labelled form
[2] = biological target: Translocator protein (Homo sapiens) (UniProt P30536); test: Binding affinity to TSPO in parietal lobe of patient with Alzheimer's disease; settings: tested as the 125I-labelled form
[3] = biological target: Translocator protein (Homo sapiens) (UniProt P30536); test: Binding affinity to TSPO in white matter of patient with Alzheimer's disease; type: tissue-based; settings: tested as the 125I-labelled form
[4] = biological target: Translocator protein (Homo sapiens) (UniProt P30536); test: Binding affinity to TSPO in temporal lobe of healthy human; type: tissue-based; settings: tested as the 125I-labelled form
[5] = biological target: Translocator protein (Homo sapiens) (UniProt P30536); test: Binding affinity to TSPO in white matter of healthy human; type: tissue-based; settings: tested as the 125I-labelled form
[6] = biological target: Translocator protein (Homo sapiens) (UniProt P30536); test: Binding affinity to TSPO in temporal lobe of patient with Alzheimer's disease; settings: tested as the 125I-labelled form
Translocator protein = Translocator protein (Rattus norvegicus, UniProt P16257); test: Displacement of [3H]PK11195 from TSPO in rat cortex
Translocator protein, sequence (P16257 whole entry, looked up): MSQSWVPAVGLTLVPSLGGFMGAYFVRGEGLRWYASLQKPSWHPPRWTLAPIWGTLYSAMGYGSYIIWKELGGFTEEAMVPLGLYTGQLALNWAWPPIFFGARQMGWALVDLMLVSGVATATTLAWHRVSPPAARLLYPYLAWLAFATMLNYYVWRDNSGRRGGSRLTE

Rattus norvegicus [7] = species on record: Rattus norvegicus; test: Displacement of [3H]diazepam from central benzodiazepine receptor in Wistar rat […] by scintillation counting
U-937 [8] = test: Antiapoptotic activity against TNF-alpha-induced apoptosis in human U937 cells; type: functional
[9] = biological target: Translocator protein (Mus musculus) (UniProt P50637); test: Binding affinity to mitochondrial TSPO in mouse MA10 cells in presence of human chorionic gonadotropin; type: cell-based
Translocator protein (Mus musculus), sequence (P50637 whole entry, looked up): as the sequence (P16257 whole entry, looked up) above, with S2P, Q3E, I67V, E77D, V110A, M113L, M149V, T168P counted along it

[10] = biological target: Translocator protein (Homo sapiens) (UniProt P30536); test: Displacement of [3H]Ro5-4864 from TSPO
[11] = biological target: Translocator protein (Homo sapiens) (UniProt P30536); test: Displacement of [3H]Ro5-4864 from TSPO in caudate nucleus of patient with Huntington's disease; settings: tested as the 3H-labelled form
Rattus norvegicus [12] = species on record: Rattus norvegicus; test: Displacement of [3H]Ro5-4864 from GABAA receptor in rat brain membrane; type: cell membranes
[13] = biological target: Translocator protein (Homo sapiens) (UniProt P30536); test: Displacement of [3H]Ro5-4864 from TSPO in putamen of healthy human; settings: tested as the 3H-labelled form
U-937 [14] = test: Induction of apoptosis in human U937 cells; type: functional

Translocator protein (Homo sapiens), sequence (P30536 whole entry): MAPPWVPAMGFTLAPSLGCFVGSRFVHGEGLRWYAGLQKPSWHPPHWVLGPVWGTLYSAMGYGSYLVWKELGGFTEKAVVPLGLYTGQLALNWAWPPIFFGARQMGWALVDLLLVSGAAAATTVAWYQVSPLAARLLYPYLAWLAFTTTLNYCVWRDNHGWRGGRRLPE

## COc1ccc(OC)c(CN(C(C)=O)c2cc(I)ccc2Oc2ccccc2)c1
[1]
  Bmax: 0.32 fmol/mg
[2]
  Bmax: 1.26 fmol/mg
[3]
  Bmax: 1.12 fmol/mg
[4]
  Bmax: 0.22 fmol/mg
[5]
  Bmax: 0.24 fmol/mg
[6]
  Bmax: 1.02 fmol/mg

## CC(=O)N(Cc1ccccc1OC(C)C)c1ccc(Cl)cc1Oc1ccccc1
Translocator protein
  Ki: 0.92 nM

## CCCCCCN(CCCCCC)C(=O)Cc1c(-c2ccc(F)cc2)[nH]c2ccccc12
Translocator protein
  Ki: 5 nM

## CN1C(=O)CN=C(c2ccccc2)c2cc(Cl)ccc21
Rattus norvegicus [7]
  Activity: 40 nM

## CN1C(=O)CN=C(c2ccc(Cl)cc2)c2cc(Cl)ccc21 [RO-54864]
U-937 [8]
  Activity: 10 µM
[9]
  Activity: 0.2 nM
[10]
  Activity: 7.3 nM
[11]
  Bmax: 61.7 fmol/mg
Rattus norvegicus [12]
  Activity: 163 µM
[13]
  Bmax: 40.7 fmol/mg
U-937 [14]
  Activity: >10 µM
